According to patent publication US9302999B2, “Substituted triazoles as herbicides” (E. I. DU PONT DE NEMOURS AND COMPANY, priority 2012, dated 2016):

What was measured:
[1] = system: sandbur (southern sandbur, Cenchrus echinatus); assay: Test F pre-/postemergence: sandbur; assay type: in vivo
Method in brief: (§1)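 Visual response scores, 0 meaning no effect and 100 complete control, were assigned against untreated controls 14 to 21 days after treatment. Test chemicals in a surfactant-containing non-phytotoxic solvent were applied preemergence to seeded silt loam soil or postemergence to 2–18 cm plants in peat-based medium.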

corn (Zea mays) = assay: Test F pre-/postemergence: corn; assay type: in vivo
Method in brief: as §1

[2] = system: field bindweed (Convolvulus arvensis); assay: Test F pre-/postemergence: field bindweed; assay type: in vivo
Method in brief: as §1

[3] = system: velvetleaf (Abutilon theophrasti); assay: Test F pre-/postemergence: velvetleaf; assay type: in vivo; details: Preemergence
Source text: Seeds of plant species selected from corn (Zea mays), soybean (Glycine max), velvetleaf (Abutilon theophrasti), lambsquarters (Chenopodium album), poinsettia, wild (wild poinsettia, Euphorbia heterophylla), pigweed, palmer (palmer pigweed, Amaranthus palmeri), waterhemp (common waterhemp, Amaranthus rudis), surinam grass (Brachiaria decumbens), crabgrass, Brazil (Brazilian crabgrass, Digitaria horizontalis), panicum, fall (fall panicum Panicum dichotomiflorum), crabgrass, large (large crabgrass, Digitaria sanguinalis), foxtail, giant (giant foxtail, Setaria faberii), foxtail, green (green foxtail Setaria viridis), goosegrass (Eleusine indica), ragweed (common ragweed, Ambrosia elatior), barnyardgrass (Echinochloa crus-galli), sandbur (southern sandbur, Cenchrus echinatus), arrowleaf sida (Sida rhombifolia), ryegrass, Italian (Italian ryegrass, Lolium multiflorum), dayflower, VA (Virginia (VA) dayflower, Commelina virginica), field bindweed (Convolvulus arvensis), cocklebur (common cocklebur, Xanthium strumarium), morningglory (Ipomoea coccinea), nightshade (eastern black nightshade, Solanum ptycanthum), kochia (Kochia scoparia), nutsedge, yellow (yellow nutsedge, Cyperus esculentus), johnsongrass (Sorghum halepense), smartweed (ladysthumb smartweed, Polygonum persicaria), and beggarticks (hairy beggarticks, Bidens pilosa), were planted into a silt loam soil and treated preemergence with test chemicals formulated in a non-phytotoxic solvent mixture which included a surfactant. At the same time, plants selected from these crop and weed species and also pigweed (Amaranthus retroflexus), waterhemp_RES1 (ALS/Triazine resistant common waterhemp, Amaranthus rudis) and waterhemp_RES2 (ALS/HPPD resistant common waterhemp, Amaranthus rudis) were planted in pots containing a planting medium comprising spaghnum peat moss, vermiculite, wetting agent and starter nutrients treated with postemergence applications of some of the test chemicals formulated in the same manner. Plants ranged in height from 2 to 18 cm for postemergence treatments (1- to 4-leaf stage).
Treated plants and controls were maintained in a greenhouse for 14 to 21 days, after which time all species were compared to controls and visually evaluated. Plant response ratings, summarized in Table E, are based on a scale of 0 to 100 where 0 is no effect and 100 is complete control. A dash (-) response means no test result.

Waterhemp = assay: Test C preemergence: waterhemp; assay type: in vivo, Amaranthus rudis; details: 125 g ai/ha, scale 0 to 100, 0 no effect, 100 complete control
[4] = system: pigweed, palmer (palmer pigweed, Amaranthus palmeri); assay: Test F pre-/postemergence: pigweed, palmer; assay type: in vivo
Method in brief: as §1

[5] = Preemergence, 16 g ai/ha, scale 0 to 100 (0 no effect, 100 complete control)
[6] = Preemergence, 31 g ai/ha, scale 0 to 100 (0 no effect, 100 complete control)
[7] = Preemergence, 125 g ai/ha, scale 0 to 100
[8] = Preemergence, 250 g ai/ha, scale 0 to 100
[9] = Preemergence, 62 g ai/ha, scale 0 to 100
[10] = 16 g ai/ha, scale 0 to 100 (0 no effect, 100 complete control)
[11] = 31 g ai/ha, scale 0 to 100 (0 no effect, 100 complete control)
[12] = Postemergence, 4 g ai/ha, scale 0 to 100
[13] = Postemergence, 8 g ai/ha, scale 0 to 100
[14] = Postemergence, 16 g ai/ha, scale 0 to 100
[15] = Postemergence, 31 g ai/ha, scale 0 to 100
[16] = Postemergence, 62 g ai/ha, scale 0 to 100
[17] = Preemergence, 4 g ai/ha, scale 0 to 100, 0 no effect, 100 complete control
[18] = Preemergence, 8 g ai/ha, scale 0 to 100, 0 no effect, 100 complete control

CCCc1nn(-c2ccc(F)cc2)nc1Cc1ccnc(C(F)(F)F)c1 [Compound 153]
Plant response rating, Sandbur [1, 5]: 5
Plant response rating, Sandbur [1, 6]: 35
Plant response rating, Sandbur [1, 7]: 95
Plant response rating, Sandbur [1, 8]: 100
Plant response rating, Corn (corn (Zea mays); [5]): 0
Plant response rating, Corn (corn (Zea mays); [6]): 0
Plant response rating, Corn (corn (Zea mays); [9]): 0
Plant response rating, Corn (corn (Zea mays); [7]): 0
Plant response rating, Corn (corn (Zea mays); [8]): 10
Plant response rating, Field Bindweed [2, 5]: 5
Plant response rating, Field Bindweed [2, 6]: 65
Plant response rating, Field Bindweed [2, 9]: 65
Plant response rating, Field Bindweed [2, 7]: 100
Plant response rating, Field Bindweed [2, 8]: 100
Plant response rating, Velvetleaf [3, 10]: 20
Plant response rating, Velvetleaf [3, 11]: 50
Plant response rating, Velvetleaf ([3]; 125 g ai/ha, scale 0 to 100): 98
Plant response rating, Velvetleaf ([3]; 250 g ai/ha, scale 0 to 100): 100
Plant response rating, Waterhemp (Waterhemp): 100
Plant response rating, Pigweed, Palmer [4, 5]: 98
Plant response rating, Pigweed, Palmer [4, 6]: 100
Plant response rating, Pigweed, Palmer [4, 7]: 100
Plant response rating, Pigweed, Palmer [4, 8]: 100

Cc1nn(-c2ccc(C(F)(F)F)c(F)c2)nc1Cc1ccnc(C(F)(F)F)c1 [Compound 162]
Plant response rating, Sandbur [1, 12]: 10
Plant response rating, Sandbur [1, 13]: 10
Plant response rating, Sandbur [1, 14]: 15
Plant response rating, Sandbur [1, 15]: 20
Plant response rating, Sandbur [1, 16]: 20
Plant response rating, Sandbur [1, 17]: 0
Plant response rating, Sandbur [1, 18]: 0
Plant response rating, Sandbur [1, 5]: 5
Plant response rating, Sandbur [1, 6]: 15
Plant response rating, Corn (corn (Zea mays); [12]): 5
Plant response rating, Corn (corn (Zea mays); [13]): 5
Plant response rating, Corn (corn (Zea mays); [14]): 10
Plant response rating, Corn (corn (Zea mays); [15]): 10
Plant response rating, Corn (corn (Zea mays); [16]): 10
Plant response rating, Corn (corn (Zea mays); [17]): 0
Plant response rating, Corn (corn (Zea mays); [18]): 0
Plant response rating, Corn (corn (Zea mays); [5]): 0
Plant response rating, Corn (corn (Zea mays); [6]): 0
Plant response rating, Corn (corn (Zea mays); [9]): 0
Plant response rating, Field Bindweed [2, 12]: 20
Plant response rating, Field Bindweed [2, 13]: 20
Plant response rating, Field Bindweed [2, 14]: 20
Plant response rating, Field Bindweed [2, 15]: 30
Plant response rating, Field Bindweed [2, 16]: 50
Plant response rating, Field Bindweed [2, 17]: 0
Plant response rating, Field Bindweed [2, 18]: 0
Plant response rating, Field Bindweed [2, 5]: 5
Plant response rating, Field Bindweed [2, 6]: 5
Plant response rating, Field Bindweed [2, 9]: 5
Plant response rating, Velvetleaf ([3]; 4 g ai/ha, scale 0 to 100, 0 no effect, 100 complete control): 0
Plant response rating, Velvetleaf ([3]; 8 g ai/ha, scale 0 to 100, 0 no effect, 100 complete control): 0
Plant response rating, Velvetleaf [3, 10]: 0
Plant response rating, Velvetleaf [3, 11]: 0
Plant response rating, Waterhemp (Waterhemp): 100
Plant response rating, Pigweed, Palmer [4, 12]: 70
Plant response rating, Pigweed, Palmer [4, 13]: 70
Plant response rating, Pigweed, Palmer [4, 14]: 80
Plant response rating, Pigweed, Palmer [4, 15]: 90
Plant response rating, Pigweed, Palmer [4, 16]: 90
Plant response rating, Pigweed, Palmer [4, 17]: 0
Plant response rating, Pigweed, Palmer [4, 18]: 25
Plant response rating, Pigweed, Palmer [4, 5]: 98
Plant response rating, Pigweed, Palmer [4, 6]: 100

CCOc1nn(-c2ccc(Br)cc2)nc1Cc1ccnc(C(F)(F)F)c1 [Compound 189]
Plant response rating, Waterhemp (Waterhemp): 100
